Patent US20240076284A1, “NEW COMPOUNDS AND METHODS” (BENEVOLENTAI BIO LIMITED, priority 2020, published 2024)

Experiments:
[1] = Rat microsomal stability; type: in vitro ADME; settings: rat microsomes, second value of cell; NADPH, 37° C., up to 40 min
Protocol: (§1) This assay measures the metabolic stability of a given compound and predicts intrinsic liver clearance for various species. A quench plate is initially prepared which contains 400 μL MeCN and 25 ng/mL of internal standard. An aliquot of microsomes is defrosted and subsequently diluted with buffer. A solution of NADPH is made up fresh just before initialising the assay. 445 μL of microsome solution is added to the desired compound (5 μL in 10 μM DMSO) and the resulting solution mixed. The reaction is initiated by the addition of 50 μL of NADPH, a T0 sample is removed before the addition and quenched. The sample plate is kept at a constant 37° C. during the incubation. At pre-determined timepoints (2.5, 5, 10, 20 and 40 min) the incubation is mixed and 22.5 μL samples are transferred to quench plates. After completion of the time course, the quench plates are sealed and shaken for a minimum of 5 min, before centrifugation at 4000 rpm for 5 min. The supernatant is then subsequently transferred to a fresh plate and diluted 1:3 with MeOH/H2O. The plates are then heat sealed and analysed by a Water Acquity UPLC and a Waters TQ-S mass spectrometer. Waters MassLynx software is used for analysis using an MRM transition that has been previously generated from prior optimisation. After acquiring the data on the system the chromatograms are processed and checked using TargetLynx XS software and the raw data output is copied into a microsomal stability workbook. The workbook automatically populates and derives the CLint, t1/2 and scales the CLint values to generate Eh and predicted CL values. The analyst has the final workbook quality checked before the experiment is signed off.

[2] = molecular target: T1, MDR1 (Homo sapiens, UniProt P08183); assay: MDR1-MDCK effective efflux ratio; type: in vitro ADME; settings: MDR1-MDCK relative to wild-type MDCK, 1 μM, 60 minutes, pH 7.4
T1 construct: expressed in transfected cells; host or cells: MDCK (canine kidney) cells
T1 sequence (P08183 whole entry, species assumed): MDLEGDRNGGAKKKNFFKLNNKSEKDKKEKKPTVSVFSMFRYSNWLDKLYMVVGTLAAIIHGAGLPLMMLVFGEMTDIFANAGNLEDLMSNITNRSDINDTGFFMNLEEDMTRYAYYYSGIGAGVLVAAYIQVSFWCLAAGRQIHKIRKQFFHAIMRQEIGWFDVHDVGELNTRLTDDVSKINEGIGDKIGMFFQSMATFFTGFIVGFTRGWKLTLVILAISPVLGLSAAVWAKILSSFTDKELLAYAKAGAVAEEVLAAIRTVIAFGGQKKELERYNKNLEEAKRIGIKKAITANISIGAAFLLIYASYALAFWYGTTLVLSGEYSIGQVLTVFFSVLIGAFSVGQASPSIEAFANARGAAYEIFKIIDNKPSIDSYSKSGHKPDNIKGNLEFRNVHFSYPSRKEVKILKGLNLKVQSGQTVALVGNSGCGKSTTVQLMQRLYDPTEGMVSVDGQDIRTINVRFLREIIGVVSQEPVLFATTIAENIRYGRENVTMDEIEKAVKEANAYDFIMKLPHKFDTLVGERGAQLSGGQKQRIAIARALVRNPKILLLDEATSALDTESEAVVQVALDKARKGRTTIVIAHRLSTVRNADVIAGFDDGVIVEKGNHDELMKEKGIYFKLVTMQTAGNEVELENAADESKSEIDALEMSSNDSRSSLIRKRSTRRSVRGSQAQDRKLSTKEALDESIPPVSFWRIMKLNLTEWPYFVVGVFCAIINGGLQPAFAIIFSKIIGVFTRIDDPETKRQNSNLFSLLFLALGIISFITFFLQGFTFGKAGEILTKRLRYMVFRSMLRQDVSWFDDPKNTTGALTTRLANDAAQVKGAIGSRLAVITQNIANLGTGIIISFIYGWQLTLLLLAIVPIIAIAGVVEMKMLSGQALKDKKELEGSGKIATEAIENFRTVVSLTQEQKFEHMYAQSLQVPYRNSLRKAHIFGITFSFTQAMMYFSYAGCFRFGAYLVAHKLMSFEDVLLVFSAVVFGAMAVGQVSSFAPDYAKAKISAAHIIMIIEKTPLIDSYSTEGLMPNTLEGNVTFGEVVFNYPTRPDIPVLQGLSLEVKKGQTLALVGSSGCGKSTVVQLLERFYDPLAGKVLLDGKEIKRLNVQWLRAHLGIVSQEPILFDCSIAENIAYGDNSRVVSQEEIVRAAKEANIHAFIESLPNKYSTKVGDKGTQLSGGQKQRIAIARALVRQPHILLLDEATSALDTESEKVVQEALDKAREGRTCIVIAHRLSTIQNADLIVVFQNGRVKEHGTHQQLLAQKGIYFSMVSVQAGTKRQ
Protocol: (§2) Wild-type MDCK, MDR1-MDCK and BCRP-MDCK cells were seeded into 24 well Transwell plates and cultured for 3 days to form monolayers. Test compound were prepared at 1 μM in Hanks' Balanced Salt Solution containing 25 mM HEPES and loaded into the donor compartments of Transwell plates bearing the cell monolayers (pH 7.4 for both donor and receiver compartments). Lucifer Yellow was added to the apical buffer in all wells to assess integrity of the cell monolayer. Duplicate wells were prepared and incubated at 37° C. in a CO2 incubator. Samples were removed at time zero and 60 minutes and test compound analysed by LC-MS/MS. Concentrations of Lucifer Yellow in the samples was measured using a fluorescence plate reader. The apparent permeability (Papp) values of test compound was determined for both the apical to basal (A>B) and basal to apical (B>A) permeation and the efflux ratio (B>A: A>B) determined in each cell line. The effective efflux ratio was determined from the ratio of either MDR1-MDCK cells or BCRP-MDCK cells relative to the ratio observed in wild-type cells. A higher value represent a better substrate for the efflux mechanism, which is less preferable.

[3] = Human microsomal stability; type: in vitro ADME; settings: human microsomes, first value of cell; NADPH, 37° C., up to 40 min
Protocol: as §1

[4] = molecular target: T2, BCRP (Homo sapiens, UniProt Q9UNQ0); assay: BCRP-MDCK effective efflux ratio; type: in vitro ADME; settings: BCRP-MDCK relative to wild-type MDCK, 1 μM, 60 minutes, pH 7.4
T2 construct: expressed in transfected cells; host or cells: MDCK (canine kidney) cells
T2 sequence (Q9UNQ0 1-655): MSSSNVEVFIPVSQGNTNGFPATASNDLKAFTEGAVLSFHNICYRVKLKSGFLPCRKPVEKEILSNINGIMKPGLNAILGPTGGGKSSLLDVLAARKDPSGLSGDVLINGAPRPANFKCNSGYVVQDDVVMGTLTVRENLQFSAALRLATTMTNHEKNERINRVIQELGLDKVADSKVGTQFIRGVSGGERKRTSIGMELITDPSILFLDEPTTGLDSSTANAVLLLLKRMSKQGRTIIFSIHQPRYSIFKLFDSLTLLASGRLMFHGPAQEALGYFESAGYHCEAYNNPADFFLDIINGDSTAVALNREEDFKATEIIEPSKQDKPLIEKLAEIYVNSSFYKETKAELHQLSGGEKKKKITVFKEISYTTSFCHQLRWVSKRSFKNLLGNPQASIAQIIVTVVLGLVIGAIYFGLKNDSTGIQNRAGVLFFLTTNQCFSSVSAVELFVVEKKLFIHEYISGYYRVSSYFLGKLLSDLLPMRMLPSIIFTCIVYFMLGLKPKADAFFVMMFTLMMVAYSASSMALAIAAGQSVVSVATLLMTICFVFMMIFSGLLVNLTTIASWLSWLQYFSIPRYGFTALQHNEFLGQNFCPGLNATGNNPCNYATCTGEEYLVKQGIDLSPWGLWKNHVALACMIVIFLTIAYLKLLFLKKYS
Protocol: as §2

[5] = molecular target: T3, Ba/F3 cells expressing BCR-ABL (Homo sapiens, UniProt P00519); assay: Ba/F3 CellTiter-Glo Assay; type: cell-based; settings: 48 h incubation, CellTiter-Glo luminescence
T3 construct: BCR (fusion partner, N-terminal portion of BCR); host or cells: Ba/F3 (murine pro-B cells); the other entry of the earlier key: BCR (P11274, Breakpoint cluster region protein)
T3 sequence (P00519 229-512 limits assumed): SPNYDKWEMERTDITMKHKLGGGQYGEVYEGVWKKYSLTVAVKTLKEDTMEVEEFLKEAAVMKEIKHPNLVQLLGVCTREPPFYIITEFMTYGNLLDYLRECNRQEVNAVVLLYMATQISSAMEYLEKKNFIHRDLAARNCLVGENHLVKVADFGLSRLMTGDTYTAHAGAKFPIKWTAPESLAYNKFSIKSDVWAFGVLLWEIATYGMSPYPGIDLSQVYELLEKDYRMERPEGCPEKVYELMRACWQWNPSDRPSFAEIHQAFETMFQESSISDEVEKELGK
Protocol: The CellTiter-Glo luminescent cell viability assay is a homogeneous method of determining the number of viable cells in culture based on quantification of the ATP present. Briefly, IL-3 dependent Ba/F3 cells are modified to express BCR-ABL. Activity of the transformed kinase overrides IL-3 dependency for cellular proliferation and survival. […] In this assay Ba/F3 cells expressing BCR-ABL (Advanced Cellular Dynamics) or parental Ba/F3 (control) cells were prepared at 5×10^4/mL in RPMI 1640 containing 10% FBS, 1×Glutamax and 750 ng/mL puromycin. Test compounds were dispensed into 384 well plates using the Tecan D300e at a top final assay concentration of 10 μM with dosing normalised to 0.1% DMSO in […]. 50 μL cells were added to each well of the prepared 384 well plates and the plates spun at 1000 rpm for 1 min prior to incubation at 37° C., 5% CO2 for 48 h. After 48 h 15 μL CellTiter-Glo reagent was added to each well in the plate. Following a 60 min incubation at rt luminescence was read on the Pherastar FS reader.

Row | Compound | Microsomal stability (human/rat) Eh [1] | MDCK MDR1 EER [2] | Microsomal stability (human/rat) Eh [3] | MDCK BCRP EER [4] | IC50 [5]
1 | Cc1ccc(C(=O)Nc2cc(C(F)(F)F)ccn2)cc1-n1cc(-c2cncnc2)cn1 [Example 3, 4-Methyl-3-(4-pyrimidin-5-ylpyrazol-1-yl)-N-[4-(trifluoromethyl)-2-pyridyl]benzamide] | 0.44 | 1.0 | 0.56 | 1.0 | 25 nM
2 | Cc1ccc(C(=O)Nc2cc(C(F)(F)F)ccn2)cc1-n1cc(-c2cnn(C)c2C)cn1 [Example 4, 3-[4-(1,5-Dimethylpyrazol-4-yl)pyrazol-1-yl]-4-methyl-N-[4-(trifluoromethyl)-2-pyridyl]benzamide] | 0.60 | 1.2 | < 0.44 | 1.3 | 72 nM
